Laboratory results: patent US20230287044A1, “NOVEL ANTIBACTERIAL PEPTIDE AND USE THEREOF” (priority 2020, published 2023)
Values after ≈ are worked out from the molar mass of the structure shown. Read-outs that look alike come from different tables or passages of the source. Square brackets hold non-standard residues; d marks the D form. Peptide text beside a SMILES is read from it.

Experiments:
[1] = test system: MRAB (A. baumannii) ATCC BAA 1605; type: cell-based, Acinetobacter baumannii
Summary of the method: (§1)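 Mid-log cultures grown in CAMHB and diluted to 1× 10^6 cfu/ml in PBS were mixed with an equal volume of peptide in CAMHB (80 µM to 0.63 µM twofold dilutions). MIC taken as the mean of three independent experiments.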

[2] = test system: VRE (E. faecalis) ATCC 51575; type: cell-based, Enterococcus faecalis; conditions: ATCC 51575, 18 h
Summary of the method: as §1

[3] = test system: MRSA (S. aureus) KCCM 40510; type: cell-based, Staphylococcus aureus; conditions: KCCM 40510, 18 h
Summary of the method: as §1

[4] = Solubility of antibacterial peptides in solution; type: physicochemical
[5] = test system: MRPA (P. aeruginosa) CCARM 2180; type: cell-based, Pseudomonas aeruginosa; conditions: CCARM 2180, 18 h
Summary of the method: as §1

E. coli = assay: In vivo antibacterial activity in mice (survival rate after E. coli infection); set-up: species or system mice (BALB/c); conditions: E. coli 1 × 10^6 cfu/mouse subcutaneous; 100 mg/kg after 1, 24 and 48 hours; observed 7 days
Protocol: The results obtained by analyzing the antibacterial activity against bacteria (E. coli) according to treatment with KSH43 as a survival rate of mice (BALB/c, female. 7-weeks) are shown in FIG. 216.
Specifically, the strains were grown in CAMHB until the log phase, and then washed with PBS buffer, and infected by subcutaneous injection into mice to 1 × 10^6 cfu/mouse. After 1 hour, 24 hours, and 48 hours, KSH43 and PBS (negative control) were administered at a dose of 100 mg/kg. Thereafter, the survival rate of the mice was checked every 12 hours for 7 days and compared to measure the in vivo antibacterial activity.

[6] = test system: 30 species of Acinetobacter baumannii (A. baumannii); type: cell-based; conditions: against 30 species of Acinetobacter baumannii
Protocol: In addition, the results obtained by measuring the minimum inhibitory concentrations of KSH29, KSH42 and KSH43 against 30 species of Acinetobacter baumannii (A. baumannii) are shown in Table 4 below.
The minimum inhibitory concentrations (MIC) against the 30 species of Acinetobacter baumannii were measured in the following manner.
The strain 1605 was purchased from ATCC (American Type Culture Collection, USA). In addition, the strain 40203 was purchased from the Korean Culture Center of Microorganisms.
The COL^R refers to resistance to colistin, the TGC^R refers to resistance to tigecycline, and the TGC^I refers to tigecycline intermediate strains.

| MIC MRAB (A. baumannii) ATCC BAA 1605 ([1]; ATCC BAA 1605, 18 h) | SMILES | MIC MRAB (A. baumannii) ATCC BAA 1605 ([1]; CAMHB, 37° C., 18 hours, average of three experiments) | MIC VRE (E. faecalis) ATCC 51575 [2] | MIC MRSA (S. aureus) KCCM 40510 [3] | solubility at 12 h ([4]; aqueous buffer) | solubility at 12 h ([4]; plasma or biological fluid) | solubility at 12 h ([4]; water) | MIC MRPA (P. aeruginosa) CCARM 2180 [5] | survival rate of mice (E. coli) | MIC50 [6] | MIC90 [6] |
| --- | --- | --- | --- | --- | --- | --- | --- | --- | --- | --- | --- |
|  | CC[C@@H](C)[C@@H](NC(=O)[C@@H](Cc1c[nH]c2ccccc12)NC(=O)[C@@H](CCCNC(=N)N)NC(=O)[C@@H](CCCNC(=N)N)NC(=O)[C@H](N)CCCNC(=N)N)C(=O)N[C@H](Cc1c[nH]c2ccccc12)C(=O)N[C@@H](C(=O)N[C@H](CC(C)C)C(=O)N[C@H](Cc1c[nH]c2ccccc12)C(=O)N[C@H](CCCCN)C(N)=O)C(C)C [KSH43, rrrwiwvlwk] (H-[dR][dR][dR][dW][dI][dW][dV][dL][dW][dK]-NH2; N-terminus assumed) | 0.63 µM (≈ 0.944 µg/mL) | 0.63 µM (≈ 0.944 µg/mL) | 0.63 µM (≈ 0.944 µg/mL) | > 200 µM | > 25 µM | > 2000 µM | 1.25 µM (≈ 1.87 µg/mL) | all mice administered with KSH43 survived for 7 days | 0.63 µM (≈ 0.944 µg/mL) | 1.25 µM (≈ 1.87 µg/mL) |
| 0.63 µM (≈ 0.891 µg/mL) | CC[C@@H](C)[C@@H](NC(=O)[C@@H](Cc1c[nH]c2ccccc12)NC(=O)[C@@H](CCCCN)NC(=O)[C@@H](CCCCN)NC(=O)[C@H](N)CCCCN)C(=O)N[C@H](Cc1c[nH]c2ccccc12)C(=O)N[C@@H](C(=O)N[C@H](CC(C)C)C(=O)N[C@H](Cc1c[nH]c2ccccc12)C(=O)N[C@H](CCCCN)C(N)=O)C(C)C [KSH46, kkkwiwvlwk] (H-[dK][dK][dK][dW][dI][dW][dV][dL][dW][dK]-NH2; N-terminus assumed) |  | 1.25 µM (≈ 1.77 µg/mL) | 1.25 µM (≈ 1.77 µg/mL) | > 200 µM | 200 µM (≈ 283 µg/mL) | > 2000 µM | 1.25 µM (≈ 1.77 µg/mL) |  |  |  |
